From patent publication US20070037882A1, “Remedy for cerebral neurodegenerative diseases using ppar agonist” (Astellas Pharma Inc., priority 2003, published 2007)

Legend:
SH-SY5Y cells [1] = assay: Staurosporine-induced cellular death model, viable cells by MTT assay; type: cell-based, human; conditions: for suppression of staurosporine-induced cellular death (in words): SH-SY5Y; for MTT assay A490: staurosporine + (150 nM), 24 h
Protocol: Cellular death was induced by adding a protein kinase inhibitor staurosporine to a neuroblastoma SH-SY5Y to examine the effect of PPARδ agonists on the suppression of cellular death. SH-SY5Y cells were plated on a 96-well plate (70,000 cell/well in 100 μl DMEM low glucose 10% fetal bovine serum) for overnight culturing, from which the culture medium was removed with an aspirator. Then, DMEM without serum was added at 50 μl/well. […] 2 hours later, DMEM without serum containing 900 nM staurosporine was added at 20 μl/well. (Staurosporine to a final 150 nM concentration) (For a control, DMEM without serum alone was added.) 24 hours later, the viable cell count was calculated from the absorbance at 490 nm, using Celltiter 96 Aqueous one solution cell proliferation assay kit (Promega).

SH-SY5Y cells [2] = assay: Staurosporine-induced cellular death model, dead cells by LDH assay; type: cell-based, human; conditions: staurosporine + (150 nM), 24 h
Protocol: SH-SY5Y cells were plated on a 96-well plate (70,000 cell/well in 100 μl DMEM low glucose 10% fetal bovine serum) for overnight culturing, from which the culture medium was removed with an aspirator. Then, DMEM without serum was added at 50 μl/well. […] 2 hours later, DMEM without serum containing 900 nM staurosporine was added at 20 μl/well. (Staurosporine to a final 150 nM concentration) (For a control, DMEM without serum alone was added.) 24 hours later, LDH activity was assayed by measuring the absorbance at 490 nm, using Cytotoxicity detection kit (Roche). […] An apparent correlation is observed with the results of viable cells as determined by the MTT assay in Example 9.

SH-SY5Y cells [3] = assay: Thapsigargin-induced cellular death model, apoptosis by caspase-3/7 assay; type: cell-based, human; conditions: for suppression of caspase-3/7 activity (in words): SH-SY5Y, thapsigargin; for Caspase 3/7 activity: thapsigargin + (100 nM), 3 h
SH-SY5Y cells [4] = assay: MPP+-induced cellular death model, viable cells by MTT assay; type: cell-based, human; conditions: for suppression of MPP+-induced cellular death (in words): SH-SY5Y; for MTT assay A490: MPP+ + (3 mM), 24 h
Protocol: (§1) SH-SY5Y cells were spread on a 96-well plate (70,000 cell/well in 100 μl DMEM low glucose 10% fetal bovine serum) for overnight culturing, from which the culture medium was removed with an aspirator. Then, DMEM without serum was added at 50 μl/well. […] 2 hours later, DMEM without serum containing 18 mM MPP^+ was added at 20 μl/well. (MPP^+ to a final 3 mM concentration) (For a control, DMEM without serum alone was added).
24 hours later, cell growth activity was assayed by measuring the absorbance at 490 nm, using Celltiter 96 aqueous one solution cell proliferation assay kit (Promega).
In the assay system, MPP^+ as an MPTP metabolite was added to a neuroblastoma SH-SY5Y, to inhibit the mitochondrial complex I to cause the generation of active oxygen and the inhibition of ATP synthesis, to induce cellular death. It is said that in the murine MPTP model commonly used as a model of Parkinson's disease, MPTP passing through the blood brain barrier is metabolized into MPP^+, which exerts toxicity specific to murine nigra cell to induce nerve detachment. Therefore, the assay system can be said as an in vitro assay system mimicking the murine MPTP model.

SH-SY5Y cells [5] = assay: Staurosporine-induced cellular death model, apoptosis by caspase-3/7 assay; type: cell-based, human; conditions: for suppression of caspase-3/7 activity (in words): SH-SY5Y, staurosporine; for Caspase 3/7 activity: staurosporine + (150 nM), 3 h
Protocol: as §1, with “900 nM staurosporine” for “18 mM MPP^+”, “(Staurosporine” for “(MPP^+”, “150 nM” for “3 mM”
(§2) 3 hours later, the caspase-3/7 activity was assayed with Apo-One homogenous Caspase-3/7 assay kit (Promega).

SH-SY5Y cells [6] = assay: MPP+-induced cellular death model, dead cells by LDH assay; type: cell-based, human; conditions: for LDH release A490: MPP+ + (3 mM), 24 h; for cytotoxicity (in words): concentration of 100 μM, MPP+ model
Protocol: as §1, with “added.)” for “added).”
24 hours later, the dead cell count was calculated on the basis of the LDH activity assayed with a cytotoxicity detection kit (Roche). […] The results reveal that the PPARδ agonists are effective on the suppression of MPP^+-induced cellular death.

SH-SY5Y cells [7] = assay: MPP+-induced cellular death model, apoptosis by caspase-3/7 assay; type: cell-based, human; conditions: for suppression of caspase-3/7 activity (in words): SH-SY5Y, MPP+; for Caspase 3/7 activity: MPP+ + (3 mM), 3 h
Protocol: as §1, with “concentration.)” for “concentration)”, “(For” for “(For a”, “added.)” for “added).”
as §2

[8] = tested on: murine MPTP Parkinson's model; assay: Murine MPTP Parkinson's model, striate body DA and metabolites; type: in vivo, mice; conditions: for DA content per wet weight of striate body / DOPAC content per wet weight of striate body / HVA content per wet weight of striate body / Resumption ratio of content of DA / Resumption ratio of content of DOPAC / Resumption ratio of content of HVA: MPTP +; for DA content per wet weight of striate body / DOPAC content per wet weight of striate body / HVA content per wet weight of striate body: 4 days after MPTP

## Cc1cc(SCc2sc(-c3ccc(C(F)(F)F)cc3)nc2C)ccc1OCC(=O)O [GW501516]
SH-SY5Y cells [1]
  suppression of staurosporine-induced cellular death (in words): suppression of staurosporine-induced cellular death in a concentration-dependent manner
SH-SY5Y cells [1]; compound 0.1 μM
  MTT assay A490: 0.5179 ± 0.0140
SH-SY5Y cells [1]; compound 1 μM
  MTT assay A490: 0.5367 ± 0.0149
SH-SY5Y cells [1]; compound 10 μM
  MTT assay A490: 0.5860 ± 0.0086
SH-SY5Y cells [2]; compound 0.1 μM
  LDH release A490: 0.5430 ± 0.0264
SH-SY5Y cells [2]; compound 1 μM
  LDH release A490: 0.5201 ± 0.0313
SH-SY5Y cells [2]; compound 10 μM
  LDH release A490: 0.4025 ± 0.0188
SH-SY5Y cells [3]
  suppression of caspase-3/7 activity (in words): suppress the activity of caspase-3/7
SH-SY5Y cells [3]; compound 1 μM
  Caspase 3/7 activity: 237165 ± 5248 RFLU
SH-SY5Y cells [3]; compound 10 μM
  Caspase 3/7 activity: 125951 ± 6465 RFLU
SH-SY5Y cells [3]; compound 100 μM
  Caspase 3/7 activity: 421972 ± 21782 RFLU
SH-SY5Y cells [4]
  suppression of MPP+-induced cellular death (in words): suppress cellular death induced by MPP^+ in a concentration-dependent manner
SH-SY5Y cells [4]; compound 0.1 μM
  MTT assay A490: 0.3361 ± 0.0073
SH-SY5Y cells [4]; compound 1 μM
  MTT assay A490: 0.3926 ± 0.0090
SH-SY5Y cells [4]; compound 10 μM
  MTT assay A490: 0.3814 ± 0.0156
SH-SY5Y cells [4]; compound 100 μM
  MTT assay A490: 0.2990 ± 0.0144
SH-SY5Y cells [5]
  suppression of caspase-3/7 activity (in words): suppress the activity of caspase-3/7
SH-SY5Y cells [5]; compound 0.1 μM
  Caspase 3/7 activity: 586295 ± 18787 RFLU
SH-SY5Y cells [5]; compound 1 μM
  Caspase 3/7 activity: 463943 ± 12110 RFLU
SH-SY5Y cells [5]; compound 10 μM
  Caspase 3/7 activity: 420844 ± 13962 RFLU
SH-SY5Y cells [6]; compound 0.1 μM
  LDH release A490: 0.3633 ± 0.0153
SH-SY5Y cells [6]; compound 1 μM
  LDH release A490: 0.3222 ± 0.0207
SH-SY5Y cells [6]; compound 10 μM
  LDH release A490: 0.2981 ± 0.0154
SH-SY5Y cells [6]; compound 100 μM
  LDH release A490: 0.7969 ± 0.0251
SH-SY5Y cells [6]
  cytotoxicity (in words): exerted cytotoxicity
SH-SY5Y cells [7]
  suppression of caspase-3/7 activity (in words): suppress the activity of caspase-3/7 in a concentration-dependent manner
SH-SY5Y cells [7]; compound 0.1 μM
  Caspase 3/7 activity: 847552 ± 36575 RFLU
SH-SY5Y cells [7]; compound 1 μM
  Caspase 3/7 activity: 621059 ± 26590 RFLU
SH-SY5Y cells [7]; compound 10 μM
  Caspase 3/7 activity: 798646 ± 54365 RFLU
SH-SY5Y cells [7]; compound 100 μM
  Caspase 3/7 activity: 398604 ± 55698 RFLU
[8]; 12 μg/head/day
  DA content per wet weight of striate body: 7.41 ± 1.27 ng/mg tissue
  DOPAC content per wet weight of striate body: 0.39 ± 0.06 ng/mg tissues
  HVA content per wet weight of striate body: 0.82 ± 0.08 ng/mg tissue
[8]; 120 μg/head/day
  DA content per wet weight of striate body: 8.98 ± 1.20 ng/mg tissue
  DOPAC content per wet weight of striate body: 0.44 ± 0.04 ng/mg tissues
  HVA content per wet weight of striate body: 0.90 ± 0.05 ng/mg tissue
[8]; any of the doses (12 or 120 μg/head/day)
  action of suppressing the decrease of the contents of DA, DOPAC and HVA (in words): greatly observed

## CCCc1c(OCCCOc2ccc(OCC(=O)O)cc2)ccc(C(C)=O)c1O [L-165041, 4-[3-[2-propyl-3-hydroxy-4-acetyl]phenoxy]propyloxyphenoxy acetic acid]
SH-SY5Y cells [1]
  suppression of staurosporine-induced cellular death (in words): suppression of staurosporine-induced cellular death in a concentration-dependent manner
SH-SY5Y cells [1]; compound 0.1 μM
  MTT assay A490: 0.5523 ± 0.0209
SH-SY5Y cells [1]; compound 1 μM
  MTT assay A490: 0.5532 ± 0.0056
SH-SY5Y cells [1]; compound 10 μM
  MTT assay A490: 0.5167 ± 0.0098
SH-SY5Y cells [2]; compound 0.1 μM
  LDH release A490: 0.5330 ± 0.0298
SH-SY5Y cells [2]; compound 1 μM
  LDH release A490: 0.5230 ± 0.0160
SH-SY5Y cells [2]; compound 10 μM
  LDH release A490: 0.5319 ± 0.0267
SH-SY5Y cells [3]
  suppression of caspase-3/7 activity (in words): suppress the activity of caspase-3/7
SH-SY5Y cells [3]; compound 0.1 μM
  Caspase 3/7 activity: 732549 ± 24888 RFLU
SH-SY5Y cells [3]; compound 1 μM
  Caspase 3/7 activity: 652843 ± 8229 RFLU
SH-SY5Y cells [3]; compound 10 μM
  Caspase 3/7 activity: 554233 ± 23703 RFLU
SH-SY5Y cells [3]; compound 100 μM
  Caspase 3/7 activity: 242770 ± 5414 RFLU
SH-SY5Y cells [4]
  suppression of MPP+-induced cellular death (in words): suppress cellular death induced by MPP^+ in a concentration-dependent manner
SH-SY5Y cells [4]; compound 0.1 μM
  MTT assay A490: 0.3744 ± 0.0067
SH-SY5Y cells [4]; compound 1 μM
  MTT assay A490: 0.3935 ± 0.0083
SH-SY5Y cells [4]; compound 10 μM
  MTT assay A490: 0.4799 ± 0.0078
SH-SY5Y cells [4]; compound 100 μM
  MTT assay A490: 0.3181 ± 0.0122
SH-SY5Y cells [5]
  suppression of caspase-3/7 activity (in words): suppress the activity of caspase-3/7
SH-SY5Y cells [5]; compound 0.1 μM
  Caspase 3/7 activity: 535404 ± 23301 RFLU
SH-SY5Y cells [5]; compound 1 μM
  Caspase 3/7 activity: 520732 ± 17273 RFLU
SH-SY5Y cells [5]; compound 10 μM
  Caspase 3/7 activity: 483017 ± 27259 RFLU
SH-SY5Y cells [6]; compound 0.1 μM
  LDH release A490: 0.3980 ± 0.0141
SH-SY5Y cells [6]; compound 1 μM
  LDH release A490: 0.3874 ± 0.0120
SH-SY5Y cells [6]; compound 10 μM
  LDH release A490: 0.3133 ± 0.0024
SH-SY5Y cells [6]; compound 100 μM
  LDH release A490: 0.6709 ± 0.0093
SH-SY5Y cells [6]
  cytotoxicity (in words): exerted cytotoxicity
SH-SY5Y cells [7]
  suppression of caspase-3/7 activity (in words): suppress the activity of caspase-3/7 in a concentration-dependent manner
SH-SY5Y cells [7]; compound 0.1 μM
  Caspase 3/7 activity: 1430206 ± 30804 RFLU
SH-SY5Y cells [7]; compound 1 μM
  Caspase 3/7 activity: 1168920 ± 30554 RFLU
SH-SY5Y cells [7]; compound 10 μM
  Caspase 3/7 activity: 646736 ± 26366 RFLU
SH-SY5Y cells [7]; compound 100 μM
  Caspase 3/7 activity: 572152 ± 33695 RFLU
[8]; 12 μg/head/day
  Resumption ratio of content of DA: 0.42 ± 10.20%
  Resumption ratio of content of DOPAC: −1.45 ± 10.89%
  Resumption ratio of content of HVA: −4.65 ± 12.88%
  DA content per wet weight of striate body: 5.06 ± 1.08 ng/mg tissue
  DOPAC content per wet weight of striate body: 0.28 ± 0.05 ng/mg tissues
  HVA content per wet weight of striate body: 0.66 ± 0.08 ng/mg tissue
[8]; 120 μg/head/day
  Resumption ratio of content of DA: 26.42 ± 8.83 %
  Resumption ratio of content of DOPAC: 32.22 ± 15.41%
  Resumption ratio of content of HVA: 36.58 ± 16.68%
  DA content per wet weight of striate body: 7.81 ± 0.93 ng/mg tissue
  DOPAC content per wet weight of striate body: 0.44 ± 0.07 ng/mg tissues
  HVA content per wet weight of striate body: 0.91 ± 0.10 ng/mg tissue
[8]; dose of 12 μg/head/day
  action of suppressing the decrease of the contents of DA, DOPAC and HVA (in words): not so greatly observed
[8]; dose of 120 μg/head/day
  action of suppressing the decrease of the contents of DA, DOPAC and HVA (in words): greatly observed
